The term IC50 denotes the concentration needed to halve the response being measured.

Data set [1] has as its system BCap37 cells. Kind of data set: photothermal therapy effect at the cellular level. It is filed as cell-based, human. The conditions noted are these: 3 h incubation, 808 nm laser 5 min, 1 W/cm^2. The procedure:
The endocytosis experiment was carried out with the indocyanine green complex formulations prepared in embodiments 1 and 2 of the present invention, and the free ICG was used as a control. The procedures were as follows:
The experiment was divided into ICG/SN38 group, ICG/PTX group and ICG group. The BCap37 cells on the stage of logarithmic phase were evenly seeded in a 12-well plate at 1×10^5 cells/well. After 24 hours of incubation, the incubation medium was discarded, and the above formulations in 1 mL culture medium were added to the plate, respectively. After 3 hours of incubation, the incubation medium was discarded, and 1 mL of PBS was added. The three wells incubated with different formulations were then irradiated with 808 nm laser for 5 min (1 W/cm^2), and were photographed in real time by an infrared thermal camera, and the graphs of the temperature changes of each group were recorded.

In data set [2] the test system is BCap37 cells. Kind of data set: MTT cytotoxicity test with and without irradiation. The data set is classed as cell-based, human. Here is the method:
FIG. 9 is a graph showing a cytotoxicity test of ICG and the complex formulation thereof on BCap37 cells. (I1S2 is a nanoparticle formed by ICG and SN38 with a molar ratio of 1:2; and I1P1 is an aqueous solution drug of the complex formed by ICG and Paclitaxel with a molar ratio of 1:1. The drugs were applied for 24 hours and then washed off, followed by incubation for 24 hours after irradiation and non-irradiation treatment, respectively.)
200 μL of cell suspension at the density of 4000 cells/well was uniformly added to a 96-well plate. After 24 hours of incubation, ICG, ICG/SN38 (I1S2) nanoparticles, ICG/PTX (I1P1) complex solution and ICG/CCM (I1C2) complex solution were added at different concentration points. Two identical plates were incubated in dark for 3 hours, and then culture medium was removed and washed three times with PBS, followed by addition of fresh medium. The irradiation group was further dark-incubated after 30 minutes of irradiation under a fluorescent lamp, and the other cell culture plate was dark-incubated all long as a light-proof control group. After 48 hours of incubation, culture plates were centrifuged at 900 rpm, and culture medium was carefully removed. The plates were added the medium containing 0.75 mg/mL MIT dark-incubated for 3 hours, centrifuged at 3500 rpm. After carefully removing the culture solution, the plates were added 100 μL of DMSO to each well, and shaked for 5 minutes to completely dissolve the purple solids. The absorbance (OD) value was recorded on a microplate reader. The test of each drug concentration point was repeated 3 times.
For orientation: Tetrazolium dyes change colour on reduction, which living cells bring about.

A short description of data set [3]: plasma clearance test on mice. It is filed as in vivo. The procedure:
To determine the appropriate drug ratio of ICG/SN38 nanoparticles for animal experiments, a series of ICG/SN38 nanoparticles: I2S1, I1S1, I1S2, I1S5 and I1S10 were prepared, and the average particle size thereof was 130 nm, 55 nm, 36 nm, 30 nm and 26 nm, respectively. The plasma clearance rate of the nanoparticles was measured based on the content of SN38 (10 mg/kg).
In addition, the plasma clearance rates of small molecule ICG, ICG/PTX solutions, and ICG/SN38 nanoparticles were compared.

In data set [4] the test system is BCap37 human breast cancer cell line tumor. Kind of data set: in vivo fluorescence imaging in tumor-bearing nude mice. Conditions: 3 hours after administration, FIG. 13. From the text: Therefore, these two nanoparticle formulations were further selected for in vivo fluorescence imaging in tumor-bearing nude mice, in comparison with small molecule ICG. The tumor was located 2 cm below the right armpit of the mouse, derived from BCap37 human breast cancer cell line.

The test system is the same in data set [5]. The experiment in a line: tumor inhibition experiment in tumor-bearing nude mice, with and without irradiation. The data set is classed as in vivo. The procedure:
After the tumor size was grown to about 100 mm^3 (9 days after inoculation), the tumor-bearing nude mice were randomly divided into 7 groups, 5 in each group. One group was injected with PBS as blank control, and the other six administration groups were categorized as the ICG small molecule group without irradiation, ICG small molecule group plus irradiation, ICG/SN38 nanoparticle group, ICG/SN38 nanoparticle group plus irradiation, ICG/PTX aqueous solution group, and ICG/PTX aqueous solution group plus irradiation, respectively. The mice were injected via the tail vein at a dose of calculated ICG concentration at 10 mg/kg, and were administered once every other day for 2 times. The tumor size was recorded until the end of the experiment. The therapeutic effect was evaluated by comparing the treatment group with the control group. The tumor inhibition rate (IR) was calculated by the following formula: IR=100%×(mean tumor weight of the control group−mean tumor weight of the experimental group)/mean tumor weight of the control group.
FIG. 15 was the results of tumor inhibition after irradiation treatment. The ICG group was administered twice, and the ICG/SN38 nanoparticle group was administered once. Irradiation was carried out 4 hours after administration (808 nm laser, intensity 1 W/cm^2, irradiation for 2 minutes). […]

The next data set has as its system cells. Kind of data set: cellular uptake by laser confocal microscopy. It is filed as cell-based. The conditions noted are these: 2 hours after drug applied. Here is the method:
In order to judge the rate of cellular uptake of drug from the nano formulation, as well as the therapeutic effect of the drug, the laser confocal microscopy microscope was used to observe the distribution of the drug in the cells 2 hours after drug applied. […] Therefore, the largest amount of ICG could enter into the cell to exert best therapeutic effect in the nano drug-loading system.

The structures appear in SMILES notation.

For `CC1(C)C(/C=C/C=C/C=C/C=C2\N(CCCCS(=O)(=O)[O-])c3ccc4ccccc4c3C2(C)C)=[N+](CCCCS(=O)(=O)[O-])c2ccc3ccccc3c21.[Na+]` [ICG, indocyanine green], the cell temperature change entry in the data set on BCap37 cells [1] is given as “no significant temperature changes”. In the data set with BCap37 cells [2] (Homo sapiens, Bcap37, light or radiation study, with light irradiation), this compound showed a concentration for half-maximal inhibition (IC50) of roughly 13.5 µM. Also, the cell death result in the data set on BCap37 cells [2] (ICG 20 μM, after irradiation) was “death of all the cells”. The “toxicity to the cells” value with BCap37 cells [2] (in the absence of light) is recorded as “not toxic”. Further, the ICG in plasma result in data set [3] (after 1 hour) is “nearly not detectable”. Also, the plasma clearance result in data set [3] (mice, FIG. 11) is given as “extremely fast”. For the same compound, the concentration at 3 min in data set [3] (mouse, plasma, other: injection (site not specified), three minutes after injecting) was less than 1000 ng/mL. In addition, the “in vivo distribution by fluorescence” value in data set [4] is listed as “the majority of ICG from the small molecule ICG group were cleared by the body”. Besides, the anti-tumor effect result in data set [5] (irradiation 4 hours after administration, 808 nm, 1 W/cm^2, 2 minutes) is “residual tumors were still present and recurred rapidly after the end of treatment”; in data set [5] (non-irradiation, ICG 10 mg/kg tail vein, every other day for 2 times), “no anti-tumor effect at all”. The “cellular uptake / intracellular distribution” value in the data set on cells is recorded as “difficult to enter the cell”.

The record behind these values is patent publication US11331387B2, “Self-assembled drug-loading system and preparation method therefor” (SHANGHAI SELECTION BIOSCIENCE LLC., priority 2016, dated 2022).
